Reference: patent US20160244437A1, “SUBSTITUTED PHENYLALANINE DERIVATIVES” (BAYER PHARMA AKTIENGESELLSCHAFT, priority 2013, published 2016)
Structures can show the parent of a compound that is named as a salt.

Key:
[1] = target: T1, human factor XIa (Homo sapiens, UniProt P03951); assay: Measurement of FXIa inhibition (fluorogenic peptide substrate Boc-Glu(OBzl)-Ala-Arg-AMC); assay type: biochemical; conditions: factor XIa from Kordia 0.45 nM, 15 min pre-incubation, 30 min at 22° C., fluorescence
T1 construct: purchased Kordia

[2] = system: human and animal plasma; assay: Determination of anticoagulatory activity: activated partial thromboplastin time (aPTT) in plasma; conditions: concentration of test substance which brings about a 1.5-fold extension of the aPTT; plasma in vitro, C.K. Prest kit
How it was run: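 Citrated plasma (human, mouse, rat, rabbit, pig, dog) incubated with varying compound concentrations and cephalin/kaolin PTT reagent for 3 minutes at 37° C.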

T1 sequence (P03951 388-625 limits assumed): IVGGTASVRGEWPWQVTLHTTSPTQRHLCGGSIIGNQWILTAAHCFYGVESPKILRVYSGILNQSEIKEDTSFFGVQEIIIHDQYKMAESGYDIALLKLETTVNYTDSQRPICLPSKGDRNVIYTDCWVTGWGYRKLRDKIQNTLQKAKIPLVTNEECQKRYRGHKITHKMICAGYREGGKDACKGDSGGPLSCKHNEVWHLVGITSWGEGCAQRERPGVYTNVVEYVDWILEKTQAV
T1 sequence (P03951 19-387 partner limits assumed): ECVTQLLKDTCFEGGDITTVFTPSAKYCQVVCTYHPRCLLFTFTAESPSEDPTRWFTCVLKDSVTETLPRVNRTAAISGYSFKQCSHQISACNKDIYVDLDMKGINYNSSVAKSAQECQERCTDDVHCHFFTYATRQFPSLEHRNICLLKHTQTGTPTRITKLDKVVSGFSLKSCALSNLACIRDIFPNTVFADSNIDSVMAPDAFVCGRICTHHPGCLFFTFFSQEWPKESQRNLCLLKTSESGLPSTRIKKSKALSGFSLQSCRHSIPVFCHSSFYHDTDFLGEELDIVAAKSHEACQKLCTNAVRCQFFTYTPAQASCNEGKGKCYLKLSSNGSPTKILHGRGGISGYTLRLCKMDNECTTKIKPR

SMILES	IC50 [1] [nM]	aPTT [2] [µmol/L]
COc1ccc(C[C@H](NC(=O)[C@H]2CC[C@H](CN)CC2)C(=O)Nc2ccc(-c3nn[nH]n3)cc2)cc1-c1ccc(C(=O)NC2CCNCC2)cc1C [Example 56, 5′-[(2S)-2-({[trans-4-(Aminomethyl)cyclohexyl]carbonyl}amino)-3-oxo-3-{[4-(2H-tetrazol-5-yl)phenyl]amino}propyl]-2′-methoxy-2-methyl-N-(piperidin-4-yl)biphenyl-4-carboxamide hydrochloride]	15	0.28
CN1CCN(C(=O)c2ccc(-c3cccc(C[C@H](NC(=O)[C@H]4CC[C@H](CN)CC4)C(=O)Nc4ccc(-c5nnc(Cl)[nH]5)cc4)c3)cc2)CC1 [Example 27, trans-4-(Aminomethyl)-N-[(2S)-1-{[4-(3-chloro-4H-1,2,4-triazol-5-yl)phenyl]amino}-3-{4′-[(4-methylpiperazin-1-yl)carbonyl]biphenyl-3-yl}-1-oxopropan-2-yl]cyclohexanecarboxamide hydrochloride]	4.7	0.3
